Laboratory results reported in patent publication USRE33024E, “Bronchodilating 8-hydroxy-5-(1R)-1-hydroxy-2-(N-((1R)-2-(p-methoxyphenyl)-1-methylethyl) -amino)ethyl) carbostyril and intermediates thereof” (Tanabe Seiyaku Co. Ltd., priority 1983, dated 1989).
Where a name gives a salt, the structure may show the parent alone.

How the values were obtained:
[1] = tested on: antigen-induced bronchoconstriction; experiment: Inhibitory effect on antigen-induced bronchoconstriction (Konzett-Rossler method); type: in vivo, guinea pig (Male Hartley); conditions: Cavia porcellus, iv; i.v. one minute before ovalbumin challenge (30 μg/kg, i.v.); passively sensitized guinea pigs
Description: Inhibitory effect on antigen-induced bronchoconstriction
Male Hartley guinea pigs (body weight: 280-520 g) were passively sensitized by intravenous injection of rabbit antiserum against ovalbumin (0.2 ml/100 g of body weight, PCA titer: ×1000), 24 hours later, the animals were anesthetized with α-chloralose (120 mg/kg, i.v.) and immobilized with gallamine triethiodide (5 mg/kg, i.v.) under artificial respiration. Lung volume changes were measured as overflow of air from the lung by the Konzett-Rossler method (cf. Arch. Exp. Pathol. Pharmakol., 195, 71 (1940)). The test compound was administered intravenously to the animals one minute before said animals were challenged with ovalbumin (30 μg/kg, i.v.). The ED50 (i.e., the dose of the test compound which is necessary to produce 50% reduction of antigen-induced bronchoconstruction) was estimated from the dose-response curve.

in vivo = conditions: mouse, iv
Description: (§1) A test compound was dissolved in 5% glucose solution, and the test compound solution (0.2 ml/10 g of body weight) was administered intravenously to Male ddY strain mice (body weight: 25-28 g). The LD50 of the test compound was estimated by the Up and Down method.

[2] = tested on: isolated tracheal muscle preparations of Male Hartley guinea pigs; experiment: Bronchodilating activity: relaxation of histamine-induced contraction of isolated tracheal muscle preparations (Magnus' method); set-up: species or system guinea pig (Male Hartley)
Description: Isolated tracheal muscle preparations of Male Hartley guinea pigs (body weight: 430-645 g) were used to estimate the bronchodilating activity of a test compound according to Magnus' method. The preparation was suspended in an organ bath filled with 20 ml of Tyrode's solution (37° C.), and said solution was continuously bubbled with air. Histamine 2HCl was added to the bath (final concentration; 1×10^-5 g/ml) and the test compound was added thereto about 15 minutes after the addition of histamine 2HCl. Tension changes in the tracheal smooth muscle were recorded isometrically with a force-displacement transducer. Molar conentration of the test compound which produced 50% relaxation of the histamine-induced tracheal contraction were estimated from the concentration-response curve, and the potency ratio of the test compound to Isoproterenol was calculated therefrom.

Male ddY strain mice = experiment: Acute toxicity (Up and Down method); conditions: mouse, in vivo
Description: as §1

| Compound | ED50 [1] | LD50 (in vivo) | bronchodilating activity, times as strong as Isoproterenol ([2]; isolated tracheal chains of guinea pigs, versus Isoproterenol) | bronchodilating activity, times as strong as procaterol ([2]; isolated tracheal chains of guinea pigs, versus procaterol) | Potency ratio (to Isoproterenol) ([2]; from molar concentration giving 50% relaxation of histamine-induced tracheal contraction, histamine 2HCl 1×10^-5 g/ml, Tyrode's solution 37° C.) | selectivity ratio (in vivo) | toxicity (in words) (Male ddY strain mice) |
| --- | --- | --- | --- | --- | --- | --- | --- |
| COc1ccc(C[C@@H](C)NC[C@H](O)c2ccc(O)c3[nH]c(=O)ccc23)cc1 (relative stereo) [Comp. No. 2, 8-hydroxy-5-{1-hydroxy-2-[N-(2-(p-methoxyphenyl)-1-methylethyl)amino]ethyl}carbotyril (α-isomer) hydrochloride] | 0.00018 mg/kg | 91.3 mg/kg |  |  |  |  |  |
| COc1ccc(C[C@@H](C)NC[C@H](O)c2ccc(O)c3[nH]c(=O)ccc23)cc1.Cl [Comp. No. 1, 8-hydroxy-5-{(1R)-1-hydroxy-2-[N-((1R)-2-(p-methoxyphenyl)-1-methylethyl)amino]ethyl}carbostyril hydrochloride] |  | 84.6 mg/kg | ~100 times | about 10 times |  |  |  |
| CCC(NC(C)C)C(O)c1ccc(O)c2[nH]c(=O)ccc12 (stereo not shown) [Procaterol, 8-hydroxy-5-[1-hydroxy-2-(isopropylamino)butyl]carbostyril hydrochloride hemihydrate, reference compound] | 0.00064 mg/kg | 70.3 mg/kg |  |  | 17 | 110000 |  |
| COc1ccc(CC(C)NCC(O)c2ccc(O)c3[nH]c(=O)ccc23)cc1 (stereo not shown) [compound (I)] |  |  |  |  |  |  | considerably low |
